Patent publication US20240150300A1, “S-CONFIGURATION-CONTAINING AMINO BENZAMIDE PYRIDAZINONE COMPOUND, PREPARATION METHOD THEREFOR, AND PHARMACEUTICAL COMPOSITION AND APPLICATION THEREOF” (SHANGHAI INSTITUTE OF MATERIA MEDICA, CHINESE ACADEMY OF …, priority 2021, published 2024)

Assays:
A2058 = assay: Antiproliferative activity, CCK-8, A2058; type: cell-based; details: A2058, Melanoma; read-out: Cytotoxicity (IC50 μM)
Experimental: (§1) The tumor cells used were purchased from commercial cell banks (HCT116 purchased from ATCC, SKM 1 purchased from JCRB). The growth inhibition of cells was detected using the CCK-8 method. The specific steps were as follows. Cells in the logarithmic growth phase were seeded into a 96 well culture plate at an appropriate density, with 90 μL/well. After overnight cultivation, different concentrations of drugs were added for treatment for 72 h, with each concentration in triplicate, and corresponding concentration of vehicle control and cell-free blank wells were also set. After the treatment, 10 μL of CCK-8 was added to each well and the plate was incubated in an incubator for 2-4 hours, and the optical density (OD value) at a wavelength of 450 nm was measured using a SpectraMax 190 microplate reader. […] The experiment was repeated twice, and the mean value and SD were calculated.
(§2) The testing method for antiproliferative activity was the same as that mentioned in Pharmacological Experiment Example 2, and the results are shown in Table 4 and FIGS. 2-3.

SK-BR-3 = assay: Antiproliferative activity, CCK-8, SK-BR-3; type: cell-based; details: SK-BR-3, Breast cancer; read-out: Cytotoxicity (IC50 μM)
Experimental: as §1, §2

KMS-11 = assay: Antiproliferative activity, CCK-8, KMS-11; type: cell-based; details: KMS-11, Human multiple myeloma; read-out: Cytotoxicity (IC50 μM)
Experimental: as §1, §2

MDA-MB-453 = assay: Antiproliferative activity, CCK-8, MDA-MB-453; type: cell-based; details: MDA-MB-453, Breast cancer; read-out: Cytotoxicity (IC50 μM)
Experimental: as §1, §2

SNU-16 = assay: Antiproliferative activity, CCK-8, SNU-16; type: cell-based; details: SNU-16, gastric cancer; read-out: Cytotoxicity (IC50 μM)
Experimental: as §1, §2

HDLM-2 = assay: Antiproliferative activity, CCK-8, HDLM-2; type: cell-based; details: HDLM-2, Hodgkin's lymphoma; read-out: Cytotoxicity (IC50 μM)
Experimental: as §1, §2

SNU-5 = assay: Antiproliferative activity, CCK-8, SNU-5; type: cell-based; details: SNU-5, Gastric cancer; read-out: Cytotoxicity (IC50 μM)
Experimental: as §1, §2

MOLP-8 = assay: Antiproliferative activity, CCK-8, MOLP-8; type: cell-based; details: MOLP-8, Human multiple myeloma; read-out: Cytotoxicity (IC50 μM)
Experimental: as §1, §2

HDAC10 = HDAC10 (Homo sapiens (Human), UniProt Q969S8); assay: HDAC subtype inhibitory activity (HTRF), HDAC10; type: biochemical
Experimental: (§3) Human recombinant HDAC family proteins with His and GST tags were expressed using insect baculovirus expression system, and a biologically active HDAC family recombinant protein was obtained through Ni affinity column protein purification. HTRF detection method was used with H3(1-21) K9Ac biotin as the substrate. […] Briefly, 20 μl of the activity testing system included the HDAC substrate (0.2 μM. 4 μl), the Human Recombinant Protein HDAC (2-5 ng)/μl.

K-562 = assay: Antiproliferative activity, CCK-8, K-562; type: cell-based; details: K-562, Chronic myeloid leukemia; read-out: Cytotoxicity (IC50 μM)
Experimental: as §1, §2

NCI-H929 = assay: Antiproliferative activity, CCK-8, NCI-H929; type: cell-based; details: NCI-H929, Human multiple myeloma; read-out: Cytotoxicity (IC50 μM)
Experimental: as §1, §2

NU-DHL-1 = assay: Antiproliferative activity, CCK-8, NU-DHL-1; type: cell-based; details: NU-DHL-1, Diffuse large B-cell lymphoma; read-out: Cytotoxicity (IC50 μM)
Experimental: as §1, §2

PC-9 = assay: Antiproliferative activity, CCK-8, PC-9; type: cell-based; details: PC-9, Lung cancer; read-out: Cytotoxicity (IC50 μM)
Experimental: as §1, §2

U937 = assay: Antiproliferative activity, CCK-8, U937; type: cell-based; details: U937, Human tissue cell lymphoma; read-out: Cytotoxicity (IC50 μM)
Experimental: as §1, §2

CCRF-CEM = assay: Antiproliferative activity, CCK-8, CCRF-CEM; type: cell-based; details: T-cell acute lymphoblastic leukemia, read-out: Cytotoxicity (IC50 μM)
Experimental: as §1, §2

A375 = assay: Antiproliferative activity, CCK-8, A375; type: cell-based, human; details: A375, Melanoma; read-out: Cytotoxicity (IC50 μM)
Experimental: as §1, §2

MV-4-11 = assay: Antiproliferative activity, CCK-8, MV-4-11; type: cell-based; details: MV-4-11, Acute monocyte/Monocyte leukemia; read-out: Cytotoxicity (IC50 μM)
Experimental: as §1, §2

HDAC2 = HDAC2 (Homo sapiens (Human), UniProt Q92769); assay: HDAC subtype inhibitory activity (HTRF), HDAC2; type: biochemical
Experimental: as §3

OCI-LY-3 = assay: Antiproliferative activity, CCK-8, OCI-LY-3; type: cell-based; details: OCI-LY-3, Diffuse large B-cell lymphoma; read-out: Cytotoxicity (IC50 μM)
Experimental: as §1, §2

RS4; 11 = assay: Antiproliferative activity, CCK-8, RS4; 11; type: cell-based; details: 11, Acute lymphoblastic leukemia, read-out: Cytotoxicity (IC50 μM)
Experimental: as §1, §2

HDAC1 = HDAC1 (Homo sapiens (Human), UniProt Q13547); assay: In vitro histone deacetylase activity assay (HTRF), HDAC1; type: biochemical; details: H3(1-21) K9Ac biotin substrate
Experimental: as §3

KARPAS-1106P = assay: Antiproliferative activity, CCK-8, KARPAS-1106P; type: cell-based; details: Primary mediastinal large B-cell lymphoma, read-out: Cytotoxicity (IC50 μM)
Experimental: as §1, §2

KG-1 = assay: Antiproliferative activity, CCK-8, KG-1; type: cell-based; details: KG-1, Acute myeloid leukemia; read-out: Cytotoxicity (IC50 μM)
Experimental: as §1, §2

WILL-1 = assay: Antiproliferative activity, CCK-8, WILL-1; type: cell-based; details: WILL-1, Diffuse large B-cell lymphoma; read-out: Cytotoxicity (IC50 μM)
Experimental: as §1, §2

TMD8 = assay: Antiproliferative activity, CCK-8, TMD8; type: cell-based; details: TMD8, Diffuse large B-cell lymphoma; read-out: Cytotoxicity (IC50 μM)
Experimental: as §1, §2

[1] = test system: human acute myeloid leukemia cells OCI-AML-3 transplanted tumor; assay: OCI-AML-3 NOD/SCID mice transplanted tumor model; type: in vivo; details: oral 60 mg/kg
HDAC6 = HDAC6 (Homo sapiens (Human), UniProt Q9UBN7); assay: In vitro histone deacetylase activity assay (HTRF), HDAC6; type: biochemical; details: H3(1-21) K9Ac biotin substrate
Experimental: as §3

SKM-1 cells = assay: Antiproliferative activity, CCK-8, SKM-1; type: cell-based, human; details: 72 h
Experimental: as §1
With reference to HCT-116 cell proliferation inhibition test method, the inhibitory activity of the compounds on the proliferation of human myelodysplastic syndrome cell SKM-1 was tested.

HDAC3 = HDAC3 (Homo sapiens (Human), UniProt O15379); assay: HDAC subtype inhibitory activity (HTRF), HDAC3; type: biochemical
Experimental: as §3

Sequence of HDAC6 (Q9UBN7 whole entry): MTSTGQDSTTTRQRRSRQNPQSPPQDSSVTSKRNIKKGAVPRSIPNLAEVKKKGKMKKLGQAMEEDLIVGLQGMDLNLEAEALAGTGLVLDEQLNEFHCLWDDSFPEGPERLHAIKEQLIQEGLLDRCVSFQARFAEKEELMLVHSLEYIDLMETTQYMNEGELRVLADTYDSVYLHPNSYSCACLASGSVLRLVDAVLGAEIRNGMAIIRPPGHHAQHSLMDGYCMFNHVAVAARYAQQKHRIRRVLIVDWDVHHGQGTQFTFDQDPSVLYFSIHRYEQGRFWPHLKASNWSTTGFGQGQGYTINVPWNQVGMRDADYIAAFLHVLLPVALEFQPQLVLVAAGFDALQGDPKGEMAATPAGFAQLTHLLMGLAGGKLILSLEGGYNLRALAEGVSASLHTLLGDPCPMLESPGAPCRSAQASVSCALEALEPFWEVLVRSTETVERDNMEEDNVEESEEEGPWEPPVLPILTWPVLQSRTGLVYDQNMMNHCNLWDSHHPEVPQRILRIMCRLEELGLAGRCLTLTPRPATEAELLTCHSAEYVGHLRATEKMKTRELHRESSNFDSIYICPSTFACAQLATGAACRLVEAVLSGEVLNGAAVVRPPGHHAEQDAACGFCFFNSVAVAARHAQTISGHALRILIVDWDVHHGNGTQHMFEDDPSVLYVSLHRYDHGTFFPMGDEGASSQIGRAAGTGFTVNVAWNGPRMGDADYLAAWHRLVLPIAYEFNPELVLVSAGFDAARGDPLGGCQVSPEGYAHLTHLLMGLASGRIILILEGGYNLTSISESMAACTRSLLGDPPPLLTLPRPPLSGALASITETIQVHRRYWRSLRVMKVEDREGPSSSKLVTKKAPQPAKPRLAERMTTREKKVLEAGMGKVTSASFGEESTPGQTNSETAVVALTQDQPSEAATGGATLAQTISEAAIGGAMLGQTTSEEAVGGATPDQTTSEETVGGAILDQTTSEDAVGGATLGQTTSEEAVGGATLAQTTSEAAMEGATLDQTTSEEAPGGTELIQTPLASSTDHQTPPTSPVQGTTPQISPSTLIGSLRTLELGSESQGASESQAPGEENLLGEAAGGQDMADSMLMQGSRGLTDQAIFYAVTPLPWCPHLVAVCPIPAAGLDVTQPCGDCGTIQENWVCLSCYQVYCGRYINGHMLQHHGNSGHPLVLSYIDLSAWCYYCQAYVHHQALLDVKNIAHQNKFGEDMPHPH
Sequence of HDAC3 (O15379 whole entry): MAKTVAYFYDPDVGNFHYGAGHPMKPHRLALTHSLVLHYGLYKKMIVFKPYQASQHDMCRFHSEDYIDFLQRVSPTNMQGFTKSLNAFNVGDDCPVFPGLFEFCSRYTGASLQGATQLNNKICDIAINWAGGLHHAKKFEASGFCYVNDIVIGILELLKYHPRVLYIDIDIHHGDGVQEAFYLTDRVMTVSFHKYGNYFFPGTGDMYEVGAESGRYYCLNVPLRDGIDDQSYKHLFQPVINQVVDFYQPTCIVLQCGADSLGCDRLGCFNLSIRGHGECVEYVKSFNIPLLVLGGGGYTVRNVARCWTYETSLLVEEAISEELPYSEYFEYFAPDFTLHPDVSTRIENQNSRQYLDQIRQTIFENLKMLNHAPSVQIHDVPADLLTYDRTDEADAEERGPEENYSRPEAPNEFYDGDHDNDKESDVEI
Sequence of HDAC3 (Q9Y618 395-489 partner): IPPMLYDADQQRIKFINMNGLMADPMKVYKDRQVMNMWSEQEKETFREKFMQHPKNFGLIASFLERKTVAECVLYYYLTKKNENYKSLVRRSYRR
Sequence of HDAC1 (Q13547 whole entry): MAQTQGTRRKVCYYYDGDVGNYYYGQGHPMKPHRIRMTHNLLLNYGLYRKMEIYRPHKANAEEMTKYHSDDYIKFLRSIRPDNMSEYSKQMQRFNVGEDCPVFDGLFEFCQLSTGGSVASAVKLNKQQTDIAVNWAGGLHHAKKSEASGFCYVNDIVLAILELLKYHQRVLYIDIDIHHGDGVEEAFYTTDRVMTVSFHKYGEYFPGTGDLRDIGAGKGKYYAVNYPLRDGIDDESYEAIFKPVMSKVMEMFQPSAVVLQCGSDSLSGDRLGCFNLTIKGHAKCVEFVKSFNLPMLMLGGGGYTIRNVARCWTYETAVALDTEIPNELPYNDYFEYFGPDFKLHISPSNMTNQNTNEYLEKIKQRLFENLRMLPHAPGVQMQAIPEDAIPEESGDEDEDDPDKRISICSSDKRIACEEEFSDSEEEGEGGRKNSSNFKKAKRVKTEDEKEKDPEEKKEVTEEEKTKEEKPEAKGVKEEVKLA
Sequence of HDAC10 (Q969S8 whole entry): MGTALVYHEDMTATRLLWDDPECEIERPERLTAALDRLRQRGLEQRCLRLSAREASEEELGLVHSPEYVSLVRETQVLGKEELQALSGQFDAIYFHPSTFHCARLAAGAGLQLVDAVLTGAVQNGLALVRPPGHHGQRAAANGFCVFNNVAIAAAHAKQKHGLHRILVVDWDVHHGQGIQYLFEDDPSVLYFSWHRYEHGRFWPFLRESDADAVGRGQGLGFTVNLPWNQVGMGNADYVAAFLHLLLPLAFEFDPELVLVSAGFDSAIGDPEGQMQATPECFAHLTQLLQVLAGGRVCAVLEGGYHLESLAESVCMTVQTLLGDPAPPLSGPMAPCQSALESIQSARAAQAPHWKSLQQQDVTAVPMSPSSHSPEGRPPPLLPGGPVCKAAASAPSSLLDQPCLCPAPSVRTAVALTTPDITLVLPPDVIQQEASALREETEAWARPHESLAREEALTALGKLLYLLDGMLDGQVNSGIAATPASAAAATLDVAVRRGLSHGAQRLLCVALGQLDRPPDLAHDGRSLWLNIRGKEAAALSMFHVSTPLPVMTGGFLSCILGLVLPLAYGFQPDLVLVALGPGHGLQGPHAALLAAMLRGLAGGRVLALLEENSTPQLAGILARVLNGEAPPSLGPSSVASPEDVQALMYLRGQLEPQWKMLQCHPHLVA
Sequence of HDAC2 (Q92769 whole entry): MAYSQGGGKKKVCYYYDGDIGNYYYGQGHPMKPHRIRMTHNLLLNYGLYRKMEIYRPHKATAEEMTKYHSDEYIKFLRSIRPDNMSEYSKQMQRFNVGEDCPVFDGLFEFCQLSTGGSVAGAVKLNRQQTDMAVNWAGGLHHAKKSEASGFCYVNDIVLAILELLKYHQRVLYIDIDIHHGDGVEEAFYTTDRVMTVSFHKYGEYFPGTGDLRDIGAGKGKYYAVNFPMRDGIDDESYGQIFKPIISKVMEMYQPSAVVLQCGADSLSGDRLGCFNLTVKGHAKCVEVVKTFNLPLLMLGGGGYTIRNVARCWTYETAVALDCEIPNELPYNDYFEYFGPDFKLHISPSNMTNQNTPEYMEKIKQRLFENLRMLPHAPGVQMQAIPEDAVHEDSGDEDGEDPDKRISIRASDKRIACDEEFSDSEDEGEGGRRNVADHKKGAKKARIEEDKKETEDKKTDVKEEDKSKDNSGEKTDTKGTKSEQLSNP

## C[C@@H](c1ccc(C(=O)Nc2ccc(F)cc2N)cc1)n1nc(-c2ccc(CN(C)C)cc2)ccc1=O [Compound I-1]
A2058
  IC50: 0.562 ± 0.011 µM
SK-BR-3
  IC50: 0.72 ± 0.032 µM
KMS-11
  IC50: 0.671 ± 0.01 µM
MDA-MB-453
  IC50: 0.498 ± 0.036 µM
SNU-16
  IC50: 0.675 ± 0.064 µM
HDLM-2
  IC50: 0.647 ± 0.404 µM
SNU-5
  IC50: 0.314 ± 0.011 µM
MOLP-8
  IC50: 0.632 ± 0.066 µM
HDAC10
  IC50: > 100000 nM
K-562
  IC50: 0.473 ± 0.171 µM
NCI-H929
  IC50: 0.642 ± 0.025 µM
NU-DHL-1
  IC50: 0.243 µM
PC-9
  IC50: 0.461 ± 0.034 µM
U937
  IC50: 0.435 ± 0.254 µM
CCRF-CEM
  IC50: 0.382 ± 0.067 µM
A375
  IC50: 0.556 ± 0.018 µM
MV-4-11
  IC50: 0.088 ± 0.002 µM
HDAC2
  IC50: 90 ± 6 nM
OCI-LY-3
  IC50: 0.198 ± 0.048 µM
RS4; 11
  IC50: 0.412 ± 0.129 µM
HDAC1
  IC50: 57.6 ± 4.42 nM
KARPAS-1106P
  IC50: 0.498 ± 0.009 µM
KG-1
  IC50: 0.95 ± 0.066 µM
WILL-1
  IC50: 0.116 ± 0.006 µM
TMD8
  IC50: 0.807 ± 0.142 µM
[1]; OCI-AML-3 transplanted tumor, 14 days
  relative tumor proliferation rate (T/C): 7.75%
[1]; during the transplanted tumor experiment
  body weight of mice: remained basically unchanged
HDAC6
  IC50: > 10000 nM
SKM-1 cells
  IC50: 140 ± 8 nM
HDAC3
  IC50: 420 ± 105 nM
